Among the data in ChEMBL document CHEMBL1135076, “Leishmanicidal activity of some aliphatic diamines and amino-alcohols” (Bioorg Med Chem Lett, 2002) are Activity values, retold here.

Format in all cases: functional, organism-based
In assay [1] the test system is Leishmania donovani. The experiment in a line: In vitro for leishmanicidal activity against Leishmania donovani (PP75) at the concentration of 100 ug/mL.
Assay [2] relates to Leishmania donovani. The experiment in a line: In vitro for leishmanicidal activity against Leishmania donovani (PP75) at the concentration of 50 ug/mL.
The subject of assay [3] is Leishmania donovani. The assay can be described thus: Tested in vitro for leishmanicidal activity against Leishmania donovani (PP75) at the concentration of 25 ug/mL;+ indicates Less than 70% lysis of parasites.
Assay [4] relates to Leishmania amazonensis. The assay can be described thus: Tested in vitro for leishmanicidal activity against Leishmania amazonensis (PH8) at the concentration of 25 ug/mL; + indicates less than 70% lysis of parasites.
Assay [5] deals with Leishmania amazonensis. The assay can be described thus: In vitro for leishmanicidal activity against Leishmania amazonensis (PH8) at the concentration of 10 ug/mL.
Assay [6] concerns Leishmania amazonensis. The experiment in a line: In vitro for leishmanicidal activity against Leishmania amazonensis (PH8) at the concentration of 50 ug/mL.
In assay [7] the test system is Leishmania donovani. The assay can be described thus: In vitro for leishmanicidal activity against Leishmania donovani (PP75) at the concentration of 10 ug/mL.
Assay [8] concerns Leishmania braziliensis. The experiment in a line: In vitro for leishmanicidal activity against Leishmania brasiliensis (2903) at the concentration of 100 ug/mL.
The subject of assay [9] is Leishmania amazonensis. The assay can be described thus: In vitro for leishmanicidal activity against Leishmania amazonensis (PH8) at the concentration of 100 ug/mL.
The subject of assay [10] is Leishmania braziliensis. The experiment in a line: Tested in vitro for leishmanicidal activity against Leishmania brasiliensis (2903) at the concentration of 10 ug/mL;++ indicates 80-90% lysis of parasites.
For assay [11], the system named is Leishmania braziliensis. The assay can be described thus: Tested in vitro for leishmanicidal activity against Leishmania brasiliensis (2903) at the concentration of 50 ug/mL;++ indicates 80-90% lysis of parasites.
Assay [12] has as its system Leishmania braziliensis. The assay can be described thus: Tested in vitro for leishmanicidal activity against Leishmania brasiliensis (2903) at the concentration of 10 ug/mL;+ indicates Less than 70% lysis of parasites.
Assay [13] has as its system Leishmania donovani. The experiment in a line: Tested in vitro for leishmanicidal activity against Leishmania donovani (PP75) at the concentration of 50 ug/mL;++ indicates 80-90% lysis of parasites.
For assay [14], the system named is Leishmania braziliensis. The experiment in a line: Tested in vitro for leishmanicidal activity against Leishmania brasiliensis (2903) at the concentration of 25 ug/mL;+ indicates Less than 70% lysis of parasites.
Assay [15] relates to Leishmania donovani. The experiment in a line: Tested in vitro for leishmanicidal activity against Leishmania donovani (PP75) at the concentration of 10 ug/mL.
Assay [16] deals with Leishmania amazonensis. The experiment in a line: In vitro for leishmanicidal activity against Leishmania amazonensis (PH8) at 25 ug/mL; No lysis of parasites.
The subject of assay [17] is Leishmania donovani. The experiment in a line: Tested in vitro for leishmanicidal activity against Leishmania donovani (PP75) at the concentration of 100 ug/mL;+ indicates Less than 70% lysis of parasites.
Assay [18] relates to Leishmania amazonensis. The assay can be described thus: Tested in vitro for leishmanicidal activity against Leishmania amazonensis (PH8) at the concentration of 100 ug/mL; + indicates less than 70% lysis of parasites.
Assay [19] concerns Leishmania braziliensis. The experiment in a line: In vitro for leishmanicidal activity against Leishmania brasiliensis (2903) at the concentration of 25 ug/mL.
Assay [20] has as its system Leishmania donovani. The experiment in a line: In vitro for leishmanicidal activity against Leishmania donovani (PP75) at the concentration of 25 ug/mL.
For assay [21], the system named is Leishmania braziliensis. The assay can be described thus: In vitro for leishmanicidal activity against Leishmania brasiliensis (2903) at the concentration of 10 ug/mL.
For assay [22], the system named is Leishmania braziliensis. The experiment in a line: In vitro for leishmanicidal activity against Leishmania brasiliensis (2903) at the concentration of 50 ug/mL.
Assay [23] deals with Leishmania braziliensis. The assay can be described thus: Tested in vitro for leishmanicidal activity against Leishmania brasiliensis (2903) at the concentration of 100 ug/mL; + indicates Less than 70% lysis of parasites.

For `CCCCCCCCCCCCCCC(CNCC)NC(=O)OC(C)(C)C` (stereo not drawn), the Activity in the assay with Leishmania donovani [1] is 80-90% lysis of parasites; with Leishmania donovani [2] it was “+”; with Leishmania donovani [3], 80-90% lysis of parasites; with Leishmania amazonensis [4] it was 80-90% lysis of parasites; in the assay on Leishmania amazonensis [5], 80-90% lysis of parasites; with Leishmania amazonensis [6], “+”. For the same compound, the Activity was 80-90% lysis of parasites in the assay with Leishmania donovani [7], “+” with Leishmania braziliensis [8], “+” in the assay with Leishmania amazonensis [9] and 80-90% lysis of parasites in the assay on Leishmania braziliensis [10].
Turning to `CCCCCCCCCCCCCCC(CNCC(=O)OCC)NC(=O)OC(C)(C)C` (stereo not drawn), the Activity in the assay on Leishmania braziliensis [11] was 80-90% lysis of parasites; in the assay on Leishmania braziliensis [12], 80-90% lysis of parasites; with Leishmania donovani [13] it was 80-90% lysis of parasites; in the assay with Leishmania donovani [1], “+”; with Leishmania donovani [3], 80-90% lysis of parasites; in the assay with Leishmania amazonensis [4], 80-90% lysis of parasites. Also, the Activity in the assay on Leishmania braziliensis [14] is 80-90% lysis of parasites; with Leishmania amazonensis [5] it was 80-90% lysis of parasites; in the assay on Leishmania amazonensis [6], “+”; in the assay with Leishmania donovani [7], 80-90% lysis of parasites; with Leishmania braziliensis [8], “+”; in the assay on Leishmania amazonensis [9], “+”.
`CCCCCCCCCCCCCCC(=O)NC(CCCCCCCCCCCCCC)COC(=O)CCCCCC` (stereo not drawn): the Activity entry with Leishmania donovani [15], in the assay with Leishmania amazonensis [16], with Leishmania donovani [17], with Leishmania amazonensis [18], in the assay on Leishmania donovani [2] and in the assay on Leishmania braziliensis [19] was “Less than 70% lysis of parasites” each time. Further, the Activity result with Leishmania donovani [20], in the assay on Leishmania amazonensis [5], with Leishmania braziliensis [21], with Leishmania amazonensis [6], in the assay with Leishmania braziliensis [22] and in the assay with Leishmania braziliensis [23] was “Less than 70% lysis of parasites” in each case.
Turning to `CCCCCCCCCCCCCCC(=O)NC(CO)CCCCCCCCCCCCCC` (stereo not drawn), the Activity entry with Leishmania donovani [15], with Leishmania amazonensis [16], in the assay on Leishmania donovani [17], with Leishmania amazonensis [18], with Leishmania donovani [2] and in the assay with Leishmania braziliensis [19] was “Less than 70% lysis of parasites” throughout. The Activity entry in the assay on Leishmania donovani [20], in the assay with Leishmania amazonensis [5], in the assay with Leishmania braziliensis [21], with Leishmania amazonensis [6], with Leishmania braziliensis [22] and in the assay on Leishmania braziliensis [23] was “Less than 70% lysis of parasites” throughout.
Take `CCCCCCCCCCCCCCC(=O)NC(CCCCCCCCCCCCCC)COC(=O)CCCCCCCCCCCCCC` (stereo not drawn): the Activity result in the assay on Leishmania donovani [15], in the assay with Leishmania amazonensis [16], in the assay on Leishmania donovani [17], with Leishmania amazonensis [18], with Leishmania donovani [2] and in the assay on Leishmania braziliensis [19] was “Less than 70% lysis of parasites” each time. In addition, the Activity result in the assay on Leishmania donovani [20], in the assay with Leishmania amazonensis [5], in the assay with Leishmania braziliensis [21], with Leishmania amazonensis [6], with Leishmania braziliensis [22] and in the assay with Leishmania braziliensis [23] was “Less than 70% lysis of parasites” in each case.
